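1) Cells in 96-well plates. 2) Compound, 48 h, 5 concentrations. 3) Linear interpolation between surrounding doses. 4) Unreached endpoint = highest concentration. GI50 is the concentration that inhibits growth by half.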 The source made the active and inactive calls. No stated cut-off is given here; in the data, active = GI50 up to about 1.1 µM and inactive = higher.
How the values were obtained:
Test in all cases: growth of human tumour cells (NCI), 48 h
786-0 = test system: 786-0
A498 = test system: A498
A549 = test system: A549
ACHN = test system: ACHN
BT-549 = test system: BT-549
CAKI-1 = test system: CAKI-1
CCRF-CEM = test system: CCRF-CEM
COLO 205 = test system: COLO 205
DU-145 = test system: DU-145
EKVX = test system: EKVX
HCC 2998 = test system: HCC 2998
HCT-116 = test system: HCT-116
HCT-15 = test system: HCT-15
HL-60 = test system: HL-60
HOP-62 = test system: HOP-62
HOP-92 = test system: HOP-92
HT-29 = test system: HT-29
Hs-578T = test system: Hs-578T
IGROV-1 = test system: IGROV-1
K562 = test system: K562
KM12 = test system: KM12
LOX IMVI = test system: LOX IMVI
M14 = test system: M14
MCF7 = test system: MCF7
MDA-MB-231 = test system: MDA-MB-231
MDA-MB-435 = test system: MDA-MB-435
MDA-N = test system: MDA-N
MOLT-4 = test system: MOLT-4
Malme-3M = test system: Malme-3M
NCI-H226 = test system: NCI-H226
NCI-H23 = test system: NCI-H23
NCI-H460 = test system: NCI-H460
NCI-H522 = test system: NCI-H522
NCI/ADR-RES = test system: NCI/ADR-RES
OVCAR-3 = test system: OVCAR-3
OVCAR-4 = test system: OVCAR-4
OVCAR-5 = test system: OVCAR-5
OVCAR-8 = test system: OVCAR-8
PC-3 = test system: PC-3
RPMI-8226 = test system: RPMI-8226
RXF 393 = test system: RXF 393
SF-268 = test system: SF-268
SF-295 = test system: SF-295
SF-539 = test system: SF-539
SK-MEL-28 = test system: SK-MEL-28
SK-MEL-2 = test system: SK-MEL-2
SK-MEL-5 = test system: SK-MEL-5
SK-OV-3 = test system: SK-OV-3
SN12C = test system: SN12C
SNB-19 = test system: SNB-19
SNB-75 = test system: SNB-75
SR = test system: SR
SW-620 = test system: SW-620
T47D = test system: T47D
TK-10 = test system: TK-10
U-251 = test system: U-251
UACC-257 = test system: UACC-257
UACC-62 = test system: UACC-62
UO-31 = test system: UO-31

For `CC(C)NC(=O)OCc1c(COC(=O)NC(C)C)c(-c2cc[n+](COC(=O)C3CCCCC3)cc2)n2c1CCC2`, the GI50 (786-0) was > 100 µM (inactive), the GI50 (A498) was > 100 µM (inactive) and the GI50 (A549) was > 100 µM (inactive). For the same molecule, the GI50 (ACHN) was 44.9 µM (inactive), the GI50 (BT-549) was > 100 µM (inactive) and the GI50 (CAKI-1) was 50 µM (inactive). For the same molecule, the GI50 (CCRF-CEM) was 44.8 µM (inactive), the GI50 (COLO 205) was > 100 µM (inactive) and the GI50 (DU-145) was > 100 µM (inactive). The GI50 (EKVX) was > 100 µM (inactive), the GI50 (HCC 2998) was > 100 µM (inactive) and the GI50 (HCT-116) was > 100 µM (inactive). The GI50 (HCT-15) was greater than 100 µM, the GI50 (HL-60) was 32.4 µM (inactive) and the GI50 (HOP-62) was > 100 µM (inactive). For the same molecule, the GI50 (HOP-92) was > 100 µM (inactive), the GI50 (HT-29) was > 100 µM (inactive) and the GI50 (Hs-578T) was > 100 µM (inactive). The GI50 (IGROV-1) was > 100 µM (inactive), the GI50 (K562) was > 100 µM (inactive) and the GI50 (KM12) was > 100 µM (inactive). For the same molecule, the GI50 (LOX IMVI) was > 100 µM (inactive), the GI50 (M14) was > 100 µM (inactive) and the GI50 (MCF7) was 83.4 µM (inactive). The GI50 (MDA-MB-231) was > 100 µM (inactive), the GI50 (MDA-MB-435) was > 100 µM (inactive) and the GI50 (MDA-N) was > 100 µM (inactive). For the same molecule, the GI50 (MOLT-4) was 40.8 µM (inactive), the GI50 (Malme-3M) was > 100 µM (inactive) and the GI50 (NCI-H226) was > 100 µM (inactive). For the same molecule, the GI50 (NCI-H23) was > 100 µM (inactive), the GI50 (NCI-H460) was 70 µM (inactive) and the GI50 (NCI-H522) was > 100 µM (inactive). For the same molecule, the GI50 (NCI/ADR-RES) was > 100 µM (inactive), the GI50 (OVCAR-3) was > 100 µM (inactive) and the GI50 (OVCAR-4) was > 100 µM (inactive). For the same molecule, the GI50 (OVCAR-5) was > 100 µM (inactive), the GI50 (OVCAR-8) was > 100 µM (inactive) and the GI50 (PC-3) was > 100 µM (inactive). The GI50 (RPMI-8226) was > 100 µM (inactive), the GI50 (RXF 393) was > 100 µM (inactive) and the GI50 (SF-268) was 91.2 µM (inactive). For the same molecule, the GI50 (SF-295) was > 100 µM (inactive), the GI50 (SF-539) was 21.9 µM (inactive) and the GI50 (SK-MEL-28) was > 100 µM (inactive). For the same molecule, the GI50 (SK-MEL-2) was > 100 µM (inactive), the GI50 (SK-MEL-5) was > 100 µM (inactive) and the GI50 (SK-OV-3) was > 100 µM (inactive). For the same molecule, the GI50 (SN12C) was > 100 µM (inactive), the GI50 (SNB-19) was > 100 µM (inactive) and the GI50 (SNB-75) was 43.4 µM (inactive). For the same molecule, the GI50 (SR) was 9.25 µM (inactive), the GI50 (SW-620) was > 100 µM (inactive) and the GI50 (T47D) was > 100 µM (inactive). For the same molecule, the GI50 (TK-10) was > 100 µM (inactive), the GI50 (U-251) was > 100 µM (inactive) and the GI50 (UACC-257) was > 100 µM (inactive). For the same molecule, the GI50 (UACC-62) was 99.8 µM (inactive) and the GI50 (UO-31) was > 100 µM (inactive).

For `CC(=O)CCCCn1c(=O)c2c(nc(Br)n2C)n(C)c1=O`, the GI50 (786-0) was > 100 µM (inactive), the GI50 (A498) was 95.9 µM (inactive) and the GI50 (A549) was > 100 µM (inactive). For the same molecule, the GI50 (ACHN) was > 100 µM (inactive), the GI50 (BT-549) was > 100 µM (inactive) and the GI50 (CAKI-1) was 1.82 µM (inactive). The GI50 (CCRF-CEM) was > 100 µM (inactive), the GI50 (COLO 205) was > 100 µM (inactive) and the GI50 (DU-145) was > 100 µM (inactive). The GI50 (EKVX) was 28.3 µM (inactive), the GI50 (HCC 2998) was 95.3 µM (inactive) and the GI50 (HCT-116) was > 100 µM (inactive). The GI50 (HCT-15) was greater than 100 µM, the GI50 (HL-60) was > 100 µM (inactive) and the GI50 (HOP-62) was > 100 µM (inactive). The GI50 (HOP-92) was 11.7 µM (inactive), the GI50 (HT-29) was > 100 µM (inactive) and the GI50 (Hs-578T) was > 100 µM (inactive). For the same molecule, the GI50 (IGROV-1) was 44.2 µM (inactive), the GI50 (K562) was 62.1 µM (inactive) and the GI50 (KM12) was > 100 µM (inactive). The GI50 (LOX IMVI) was > 100 µM (inactive), the GI50 (M14) was > 100 µM (inactive) and the GI50 (MCF7) was > 100 µM (inactive). The GI50 (MDA-MB-231) was > 100 µM (inactive), the GI50 (MDA-MB-435) was > 100 µM (inactive) and the GI50 (MDA-N) was > 100 µM (inactive). The GI50 (MOLT-4) was > 100 µM (inactive), the GI50 (Malme-3M) was > 100 µM (inactive) and the GI50 (NCI-H226) was > 100 µM (inactive). For the same molecule, the GI50 (NCI-H23) was > 100 µM (inactive), the GI50 (NCI-H460) was > 100 µM (inactive) and the GI50 (NCI-H522) was 10.4 µM (inactive). The GI50 (NCI/ADR-RES) was > 100 µM (inactive), the GI50 (OVCAR-3) was > 100 µM (inactive) and the GI50 (OVCAR-4) was > 100 µM (inactive). The GI50 (OVCAR-5) was > 100 µM (inactive), the GI50 (OVCAR-8) was > 100 µM (inactive) and the GI50 (PC-3) was > 100 µM (inactive). For the same molecule, the GI50 (RPMI-8226) was > 100 µM (inactive), the GI50 (RXF 393) was > 100 µM (inactive) and the GI50 (SF-268) was > 100 µM (inactive). For the same molecule, the GI50 (SF-295) was > 100 µM (inactive), the GI50 (SF-539) was > 100 µM (inactive) and the GI50 (SK-MEL-28) was > 100 µM (inactive). The GI50 (SK-MEL-2) was > 100 µM (inactive), the GI50 (SK-MEL-5) was > 100 µM (inactive) and the GI50 (SK-OV-3) was > 100 µM (inactive). The GI50 (SN12C) was > 100 µM (inactive), the GI50 (SNB-19) was > 100 µM (inactive) and the GI50 (SNB-75) was > 100 µM (inactive). For the same molecule, the GI50 (SR) was > 100 µM (inactive), the GI50 (SW-620) was > 100 µM (inactive) and the GI50 (T47D) was > 100 µM (inactive). For the same molecule, the GI50 (TK-10) was > 100 µM (inactive), the GI50 (U-251) was > 100 µM (inactive) and the GI50 (UACC-257) was > 100 µM (inactive). The GI50 (UACC-62) was > 100 µM (inactive) and the GI50 (UO-31) was 32.4 µM (inactive).

From ChEMBL document CHEMBL1201862, “PubChem BioAssay data set” (2004)
